These results are taken from patent publication US9593105B2, “Cyclic amines” (H. Lundbeck A/S, priority 2012, dated 2017).

The IC50 is the point on the concentration scale where inhibition reaches its midpoint. Higher therefore signals lower potency.

In the test the target is P2X7 receptor (Homo sapiens (Human), UniProt Q99572). The test is described as follows: P2X7 FLIPR assay (BzATP-stimulated, Fluo-4 fluorescence) in stably transfected 293 HEK cells. It counts as cell-based. On the procedure:
This example illustrates representative assays for use in evaluating the test compounds for antagonist activity. Compounds of the present invention were tested in vitro for their ability to act as antagonists to the P2X7 receptor.
Cells were plated to cell density of approximately 15,000 cells/well in 384-well assay plates (50 μl/well) with 1.5% low serum media (DMEM, 1.5% BCS, 1% L-glut (2 mM), 1% P/S).
Cells were plated to cell density of approximately 15,000 cells/well in 384-well assay plates (50 μl/well) with 1.5% low serum media (DMEM, 1.5% FBS, 1% L-glut (2 mM), 10 mM HEPES, 1% P/S). Cells were plated 24 hours prior to assay. Cells expressing human, rat or mouse P2X7 receptor were assayed in the following manner.
Fluo-4 NW dye mix (Molecular Probes, Inc., Eugene, Oreg., USA) was prepared in buffer (see manufacturer's instructions). Cell plates were removed from the 37° C. incubator, the media discarded and then 30 μL of dye was added to each well. Plates were placed in the 37° C., non-CO2 incubator for 30 minutes and then room temperature for 30 minutes.
Compound mixtures (A) were added to assay plates containing cells and placed at room temperature for 30 minutes, then BzATP (B) was added. Fluorescence was read using the Tetra FLIPR® (Molecular Devices, Inc., Sunnyvale, Calif., USA) and IC50 values were calculated by standard methods to determine antagonist activity.

Sequence of P2X7 receptor (Q99572 whole entry): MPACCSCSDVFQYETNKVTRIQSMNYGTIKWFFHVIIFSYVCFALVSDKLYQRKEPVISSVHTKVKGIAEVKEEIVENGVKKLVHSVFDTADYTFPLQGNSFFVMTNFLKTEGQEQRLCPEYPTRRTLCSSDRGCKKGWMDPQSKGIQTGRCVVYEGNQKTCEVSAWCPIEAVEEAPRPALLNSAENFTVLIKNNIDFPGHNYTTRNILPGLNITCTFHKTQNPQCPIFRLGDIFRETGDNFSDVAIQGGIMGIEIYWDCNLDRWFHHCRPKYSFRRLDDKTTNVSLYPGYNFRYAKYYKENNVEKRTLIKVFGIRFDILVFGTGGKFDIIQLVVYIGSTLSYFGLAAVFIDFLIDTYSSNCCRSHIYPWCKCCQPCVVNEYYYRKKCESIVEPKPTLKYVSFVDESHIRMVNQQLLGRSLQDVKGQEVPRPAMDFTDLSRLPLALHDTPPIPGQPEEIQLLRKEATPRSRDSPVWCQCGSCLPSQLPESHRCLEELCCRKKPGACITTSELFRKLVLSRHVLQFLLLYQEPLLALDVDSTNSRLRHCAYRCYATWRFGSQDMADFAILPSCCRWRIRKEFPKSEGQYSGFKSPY

`COc1ccc(C(=O)NCC(c2cnc(C(F)(F)F)nc2)N2CCC(F)(F)CC2)c(Cl)c1` (single isomer, unassigned; (+)) [(+)2-chloro-N-[2-(4,4-difluoro-1-piperidyl)-2-[2-(trifluorom] [(+)2-chloro-4-methoxy-N-(2-(4,4-difluoropiperidin-1-yl)-2-(2-(trifluoromethyl)pyrimidin-5-yl)ethyl)benzamide]: half-maximal inhibition (IC50) required 4.3 nM. In the case of `O=C(NCC(c1cnc(C2CC2)nc1)N1CCC(F)(F)CC1)c1c(Cl)cccc1Cl` (single isomer, unassigned; (-)) [(−)2,6-dichloro-N-[2-(2-cyclopropylpyrimidin-5-yl)-2-(4,4-di] [(−)2,6-dichloro-N-(2-(2-cyclopropylpyrimidin-5-yl)-2-(4,4-difluoropiperidin-1-yl)ethyl)benzamide] it was 5.8 nM.
